The term IC50 denotes the concentration that inhibits the measured activity by half. A higher IC50 goes with weaker potency in that assay.

The values below come from ChEMBL document CHEMBL2321873, “1-(4-Phenylpiperazin-1-yl)-2-(1H-pyrazol-1-yl)ethanones as novel CCR1 antagonists” (Bioorg Med Chem Lett, 2013).

Activity calls are given as the source filed them. No cut-off for these calls is given here. A value given as a limit tells only on which side of the number the result lay.

The target in data set [1] is T1, C-C chemokine receptor type 9 (Homo sapiens) (UniProt P51686).
T1 sequence (whole entry): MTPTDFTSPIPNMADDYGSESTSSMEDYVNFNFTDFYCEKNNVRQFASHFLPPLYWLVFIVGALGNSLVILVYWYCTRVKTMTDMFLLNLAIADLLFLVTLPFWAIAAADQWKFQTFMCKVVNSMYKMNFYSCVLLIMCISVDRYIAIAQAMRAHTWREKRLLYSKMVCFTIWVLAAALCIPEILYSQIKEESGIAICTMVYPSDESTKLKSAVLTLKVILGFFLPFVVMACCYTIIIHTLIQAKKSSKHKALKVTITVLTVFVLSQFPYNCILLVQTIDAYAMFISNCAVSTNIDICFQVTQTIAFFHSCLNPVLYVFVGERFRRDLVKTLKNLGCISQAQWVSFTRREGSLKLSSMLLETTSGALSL
In words: Antagonist activity at CCR9 (unknown origin) assessed as inhibition of chemotaxis at 10 uM.

Data set [2] has as its target T2, C-C chemokine receptor type 7 (Homo sapiens) (UniProt P32248).
T2 sequence (whole entry): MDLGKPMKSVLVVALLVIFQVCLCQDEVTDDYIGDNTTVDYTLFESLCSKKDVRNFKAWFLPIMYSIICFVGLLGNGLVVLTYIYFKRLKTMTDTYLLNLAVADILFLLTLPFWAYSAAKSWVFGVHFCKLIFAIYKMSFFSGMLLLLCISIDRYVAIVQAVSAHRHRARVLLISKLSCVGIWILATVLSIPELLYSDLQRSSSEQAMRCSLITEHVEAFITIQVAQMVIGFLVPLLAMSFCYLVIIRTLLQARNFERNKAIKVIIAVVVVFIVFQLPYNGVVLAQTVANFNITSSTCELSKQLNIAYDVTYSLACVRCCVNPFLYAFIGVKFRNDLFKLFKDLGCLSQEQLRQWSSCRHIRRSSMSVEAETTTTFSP
In words: Antagonist activity at CCR7 (unknown origin) assessed as inhibition of calcium flux at 10 uM. The data set is classed as functional.

The target in data set [3] is T3, C-C chemokine receptor type 10 (Homo sapiens) (UniProt P46092).
T3 sequence (whole entry): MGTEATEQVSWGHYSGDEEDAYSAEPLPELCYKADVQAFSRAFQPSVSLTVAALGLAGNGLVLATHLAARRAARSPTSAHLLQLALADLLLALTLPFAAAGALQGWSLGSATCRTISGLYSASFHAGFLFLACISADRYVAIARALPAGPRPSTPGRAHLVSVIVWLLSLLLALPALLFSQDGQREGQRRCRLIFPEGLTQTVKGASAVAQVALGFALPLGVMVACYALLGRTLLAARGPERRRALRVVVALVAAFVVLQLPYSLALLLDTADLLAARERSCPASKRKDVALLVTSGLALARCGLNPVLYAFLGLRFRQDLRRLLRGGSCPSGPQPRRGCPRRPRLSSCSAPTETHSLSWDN
In words: Antagonist activity at CCR10 (unknown origin) assessed as inhibition of chemotaxis at 10 uM.

The next data set concerns Salmonella typhimurium. In words: Genotoxicity in Salmonella typhimurium by Ames test in presence of S9 fractions. It is filed as toxicity, organism-based, S9 Fraction. Particulars: salmonella enterica subsp. enterica serovar typhimurium. In general terms: The Ames test detects mutagens through reverse mutation in bacteria.
Another data set deals with Cytomegalovirus. Description: Antagonist activity at CMV US28 assessed as inhibition of calcium flux at 10 uM.
The target in data set [4] is T4, G protein-coupled receptor (Human herpesvirus 8) (UniProt Q76SF8).
T4 sequence (whole entry): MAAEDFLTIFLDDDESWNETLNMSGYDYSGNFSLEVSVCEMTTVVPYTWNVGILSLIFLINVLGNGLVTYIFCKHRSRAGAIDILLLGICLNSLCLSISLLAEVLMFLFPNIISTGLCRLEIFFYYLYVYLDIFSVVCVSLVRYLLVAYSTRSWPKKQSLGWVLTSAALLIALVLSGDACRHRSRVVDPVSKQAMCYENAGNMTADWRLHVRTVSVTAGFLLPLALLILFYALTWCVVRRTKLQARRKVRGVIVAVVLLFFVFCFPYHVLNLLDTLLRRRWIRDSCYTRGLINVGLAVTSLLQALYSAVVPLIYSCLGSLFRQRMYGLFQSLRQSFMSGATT
Description: Antagonist activity at HHV8 ORF74 assessed as inhibition of calcium flux at 10 uM. It is filed as functional. To be noted: Human gammaherpesvirus 8.

The next data set concerns the target Cytochrome P450 2C9 (Homo sapiens, UniProt P11712). Description: Competitive inhibition of CYP2C9 (unknown origin). The data set is classed as ADME.
Data set [5] addresses T5, C-C chemokine receptor-like 2 (Homo sapiens) (UniProt O00421).
T5 sequence (whole entry): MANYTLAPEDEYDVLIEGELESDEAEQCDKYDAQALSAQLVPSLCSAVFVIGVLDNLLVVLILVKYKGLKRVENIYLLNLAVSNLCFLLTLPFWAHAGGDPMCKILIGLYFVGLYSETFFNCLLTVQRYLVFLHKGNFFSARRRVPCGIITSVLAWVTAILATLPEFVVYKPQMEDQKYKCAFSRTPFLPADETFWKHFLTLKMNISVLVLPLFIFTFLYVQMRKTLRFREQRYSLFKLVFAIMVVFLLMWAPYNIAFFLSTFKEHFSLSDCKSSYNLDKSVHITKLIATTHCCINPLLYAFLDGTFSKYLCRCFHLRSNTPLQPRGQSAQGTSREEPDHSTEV
Description: Antagonist activity at CCR11 (unknown origin) assessed as inhibition of chemotaxis at 10 uM.

Data set [6] addresses T1, C-C chemokine receptor type 9 (Homo sapiens). In words: Antagonist activity at CCR9 (unknown origin) assessed as inhibition of calcium flux at 10 uM. The data set is classed as functional.
The target in data set [7] is T5, C-C chemokine receptor-like 2 (Homo sapiens). In words: Antagonist activity at CCR11 (unknown origin) assessed as inhibition of calcium flux at 10 uM. The data set is classed as functional. In general terms: Calcium flux is commonly read through the fluorescence of an indicator in the cells.
Data set [8] deals with T6, C-X-C chemokine receptor type 5 (Homo sapiens) (UniProt P32302).
T6 sequence (whole entry): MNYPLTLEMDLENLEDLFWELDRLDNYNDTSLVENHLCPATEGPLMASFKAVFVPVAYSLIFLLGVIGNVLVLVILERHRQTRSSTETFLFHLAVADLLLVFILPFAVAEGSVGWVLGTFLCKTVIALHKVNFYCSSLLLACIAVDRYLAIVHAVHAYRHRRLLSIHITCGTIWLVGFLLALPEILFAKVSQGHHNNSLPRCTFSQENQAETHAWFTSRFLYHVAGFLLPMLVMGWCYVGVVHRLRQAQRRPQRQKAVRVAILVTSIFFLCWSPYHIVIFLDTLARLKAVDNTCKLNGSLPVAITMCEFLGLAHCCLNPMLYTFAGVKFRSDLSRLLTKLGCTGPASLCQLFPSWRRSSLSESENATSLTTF
In words: Antagonist activity at CXCR5 (unknown origin) assessed as inhibition of chemotaxis at 10 uM.

Cytochrome P450 2C9, sequence (P11712 whole entry): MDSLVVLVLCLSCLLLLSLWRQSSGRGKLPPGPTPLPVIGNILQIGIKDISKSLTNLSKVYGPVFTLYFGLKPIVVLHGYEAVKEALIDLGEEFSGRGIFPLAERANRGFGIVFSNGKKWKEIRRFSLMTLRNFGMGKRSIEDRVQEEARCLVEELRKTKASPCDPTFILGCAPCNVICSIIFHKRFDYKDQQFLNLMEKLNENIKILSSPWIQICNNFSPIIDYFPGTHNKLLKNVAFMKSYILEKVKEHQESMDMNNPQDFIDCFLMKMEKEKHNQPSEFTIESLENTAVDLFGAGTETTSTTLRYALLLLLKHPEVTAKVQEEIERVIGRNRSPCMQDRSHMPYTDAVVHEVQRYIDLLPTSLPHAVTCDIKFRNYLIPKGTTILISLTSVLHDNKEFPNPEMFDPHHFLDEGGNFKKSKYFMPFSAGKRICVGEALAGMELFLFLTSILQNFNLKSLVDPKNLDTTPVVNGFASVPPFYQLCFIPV

As for `COc1cc(N2CCN(C(=O)Cn3nc(C(F)(F)F)c(Cl)c3C)CC2)ccc1Cl`, the inhibition result (in [1]; in data set [2]; in [3]; in the data set with Cytomegalovirus; in [4]; in [5]) was “inactive” each time. Also, the inhibition entry in data set [6], in data set [7] and in [8] was “inactive” in each case. In the data set with Salmonella typhimurium, the Activity result is recorded as “Non-toxic”. At Cytochrome P450 2C9, this molecule had an IC50 greater than 10 µM.
